The source of these data is paper PMC6010002, “Synthesis, pharmacology and molecular docking on multifunctional tacrine-ferulic acid hybrids as cholinesterase inhibitors against Alzheimer’s disease” (Journal of Enzyme Inhibition and Medicinal Chemistry, 2018).

SMILES strings stand for the structures. Read-outs that look alike come from different tables or passages of the source.

In data set [1] the target is T1, Aβ1–42 (Homo sapiens, UniProt P05067).
T1 construct: aliquots of 2 μL of Aβ1–42 (AS-64129–05 Anaspec Inc.); purchased Anaspec Inc. AS-64129–05
The experiment in a line: Inhibition of self-induced Aβ1–42 aggregation (Thioflavin T assay). The data set is classed as biochemical. Conditions: ThT fluorescence, 24 h incubation, read-out: Inhibitory rate of compounds (25 μM) on self-induced Aβ1-42 aggregation. As for the experimental part:
Inhibitory effects of the compounds on self-induced Aβ1–42 aggregation were tested through a Thioflavin T (ThT)-(T3516, Sigma-Aldrich) binding assay.
The calculation of the inhibitory rate of Aβ1–42 self-induced aggregation was performed as the following equation: (1 − IFi/IFc) × 100%. IFi and IFc were the fluorescence intensities measured in the presence and absence of inhibitors, respectively, after subtracting the background fluorescence of the 5 mM ThT solution. Each compound was measured in triplicate.
A thioflavin T-based fluorometric assay was performed.

The subject of data set [2] is scopolamine-induced cognition-impaired adult ICR mice. The experiment in a line: Morris water maze in scopolamine-induced cognition-impaired mice. In kind it is in vivo. The settings on record: 30 mg/kg oral, scopolamine 1 mg/kg i.p., mean ± SEM n = 6; for Latency to target: probe trial. The method, then: Behavioral studies were performed using the Morris water maze[25] according to our method reported previously. Adult male imprinting control region (ICR) mice (8–10 weeks old, weight 20–25 g) were obtained from the Yangzhou University Medical Center (Yangzhou, China). All animal handling and experimental protocols were approved by the Institutional Animal Care and Use Committee of the China Pharmaceutical University. Scopolamine hydrobromide was purchased from Aladdin Reagents (S107418, Shanghai, China).
A circular pool (120 cm in diameter, 60 cm height) which was fixed with an escape platform (10 cm diameter) and filled to a depth of 40 cm fresh water (kept at 25 °C) composed the water maze and this water maze placed in a lit room was used to evaluate the cognition function and memory capacity of mice according to our previously described method[24] . After five days of learning and memory training, a probe trial was performed on day 6. For the evaluation of cognitive function, each mouse was individually trained on a visible-platform (labeled by a small flag, 5 cm tall) for two days and was followed by a hidden-platform version (placed 1 cm below the surface of the water) of the water maze from day 3 to day 5. All mice were subjected to two training trials daily, each of which lasted for 90 s. The time for each mouse to find the platform (a successful escape) was recorded. […] On the last day (day 6), a probe trial was given to the mice in which the platform was removed from the pool and each mouse was allowed 90 s to search for the platform. The time the animals spent to reach the missing platform location and the number of times they crossed that location were recorded.
Data for the time of escape latency, the swimming trajectory, and the number of visual platform crossings were recorded by Panlab SMART 3.0 (Panlab, S.L.U, Spain) and GraphPad Prism 5 was used to evaluate the level of memory retention.

The subject of data set [3] is adult male ICR mice. The data set is classed as in vivo. The settings on record: mouse, in vivo. As for the experimental part:
. Heparinised serum was obtained from the retrobulbar plexus 8, 22, and 36 h after the administration and were subjected to hepatotoxicity evaluation. The activity of aspartate aminotransferase (AST) and alanine aminotransferase (ALT), two indicators of liver damage, was determined by a commercial assay kit (EF551 and EF550 for ALT, EH027 and EF548 for AST, Wako, Japan). The data were analysed by Biochemical Analyzer (HITACHI 7020, Japan).
Mice were sacrificed 1 h after the collection of retrobulbar blood and livers were removed for morphological studies by using the immunohistochemical method. Two 3 mm sections of each liver extending from the hilus to the margin of the left lateral lobe were isolated using ultra-thin semiautomatic microtome (Leica RM2245, Germany) and placed in 10% buffered formaldehyde immediately, fixed for two days, and embedded together in one paraffin block by using paraffin embedding station (Leica EG1150H, Germany). Subsequently, 5 μm sections were prepared from these paraffin blocks. They were deparaffinated and stained with hematoxylin and eosin (H&E) for histopathological examinations.

Data set [4] deals with HepG2 cells. The settings on record: for Cell viability (% of vehicle): 24 h, MTT, mean ± SEM n = 3; for Antiproliferative activity on HepG2 cells (in words): MTT assay. As for the experimental part:
To determine the possible drug-induced hepatotoxicity, 10d and 10g were selected for preliminary hepatotoxicity evaluation. Heparinised serum was obtained after the treatment of the compounds at 8, 22, and 36 h, respectively. […] Additionally, immunohistochemical staining was performed on the liver tissues for the histopathological study.
Methods for Cell Viability Assay. The human hepatocellular HepG2 cells were […]
Cells were seeded into 96-well plates at a density of 3
37 °C for the following experiments. For cytotoxicity test, cells were treated with 0.05- […]
Cell viability was measured by 3-(4,5- dimethylthiazol-2-yl)-2,5-diphenyltetrazolium bromide (MTT) analysis. In brief, 15 µL of MTT was added into each well and incubated at 37 °C for 4 h. The […]
viability was calculated and presented by the percentage of vehicle-treated group.
(Formazan colour is commonly taken as a measure of viable cells.)

Data set [5] addresses T2, BuChE (EC 3.1.1.8) from horse serum (Equus caballus, UniProt P81908).
T2 construct: BuChE (EC 3.1.1.8, from equine serum, C0663); purchased Sigma-Aldrich C0663; host or cells: equine serum (natural source)
The experiment in a line: biochemical. Conditions: eqBuChE, mean ± SEM of triplicate independent experiments. The method, then:
(§1) AChE (EC 3.1.1.7, Type VI-S, from electric eel, C3389) and BuChE (EC 3.1.1.8, from equine serum, C0663), 5,5’-dithiobis (2-nitrobenzoic acid) (DTNB, D218200), acetylthiocholine iodide (ATC, A5751) and butyrylthiocholine iodide (BTC, B3253) used as substrates were obtained from Sigma-Aldrich (St. Louis, MO).
(§2) The inhibitory capacity of the synthesised compounds on AChE and BuChE biological activity in this paper were evaluated according to our previously reported method. Briefly, AChE/BuChE stock solution was diluted with 0.2 M phosphate buffer pH 8.0 to give 2.5 units/mL (for electrophorus electricus (eeAChE) and equine serum (eqBuChE)). ATC/BTC iodide solution (0.075 M) was dissolved in deionized water. […] The assay solution was prepared as follows: potassium dihydrogen phosphate (1.36 g, 10 mmol) was dissolved in 100 ml of water. The pH of the solution was then adjusted to 8.0 ± 0.1 with KOH. Stock solutions of the test samples were dissolved in ethanol to give a final concentration of 10 − 4^ M when diluted to the final volume of 3.32 ml. For each compound, a dilution series of five different concentrations 10 − 5–10 − 9^9 M were prepared.
(§3) For measurement, a cuvette containing 3 mL of phosphate buffer, 100 μL of eeAChE or eqBuChE, 100 μL of DTNB, and 100 μL of the test compound solution was added in sequence. The reaction was initiated by adding 20 μL of ATC or BTC and the solution was mixed immediately. […] For the reference value, 100 μL of water was replaced for the test compound solution. For the blank control, additional 100 μL of water was also replaced for the enzyme solution. The measurement of each concentration was assayed in triplicate. GraphPad Prism 5 (GraphPad Software, Inc., La Jolla, CA) was used for data processing. The inhibition curve was fitted by plotting percentage enzyme activity (100% for the reference) versus the logarithm of test compound concentration. The half maximal inhibitory concentration (IC50) values were calculated according to the curve and the data were shown in mean ± SEM.
(§4) Inhibitory activities were presented as IC50 (nM).

In data set [6] the target is T3, AChE (EC 3.1.1.7) from electric eel (Electrophorus electricus, UniProt O42275).
T3 construct: AChE (EC 3.1.1.7, Type VI-S, from electric eel, C3389); purchased Sigma-Aldrich C3389; host or cells: electric eel (natural source)
The experiment in a line: biochemical. The settings on record: for SI (selectivity index, AChE IC50/BuChE IC50): eeAChE IC50 / eqBuChE IC50; for IC50: eeAChE, mean ± SEM of triplicate independent experiments. The method, then:
as §1, §2, §3, §4

T2 sequence (P81908 whole entry): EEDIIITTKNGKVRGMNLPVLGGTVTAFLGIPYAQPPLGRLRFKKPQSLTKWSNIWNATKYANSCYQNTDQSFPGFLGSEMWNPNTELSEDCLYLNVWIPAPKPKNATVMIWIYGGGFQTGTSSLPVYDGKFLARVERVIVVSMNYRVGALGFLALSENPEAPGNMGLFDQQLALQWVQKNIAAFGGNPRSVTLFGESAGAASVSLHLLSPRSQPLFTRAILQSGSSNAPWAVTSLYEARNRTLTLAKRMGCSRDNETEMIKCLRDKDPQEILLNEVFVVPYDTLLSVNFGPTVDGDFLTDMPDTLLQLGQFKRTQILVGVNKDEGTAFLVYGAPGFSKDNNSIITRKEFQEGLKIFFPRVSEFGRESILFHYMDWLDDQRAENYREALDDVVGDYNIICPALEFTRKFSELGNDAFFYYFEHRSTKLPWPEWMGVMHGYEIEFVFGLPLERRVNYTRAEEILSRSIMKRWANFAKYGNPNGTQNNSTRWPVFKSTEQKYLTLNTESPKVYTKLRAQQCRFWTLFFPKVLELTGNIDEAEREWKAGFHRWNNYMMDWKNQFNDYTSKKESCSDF
T3 sequence (O42275 24-633): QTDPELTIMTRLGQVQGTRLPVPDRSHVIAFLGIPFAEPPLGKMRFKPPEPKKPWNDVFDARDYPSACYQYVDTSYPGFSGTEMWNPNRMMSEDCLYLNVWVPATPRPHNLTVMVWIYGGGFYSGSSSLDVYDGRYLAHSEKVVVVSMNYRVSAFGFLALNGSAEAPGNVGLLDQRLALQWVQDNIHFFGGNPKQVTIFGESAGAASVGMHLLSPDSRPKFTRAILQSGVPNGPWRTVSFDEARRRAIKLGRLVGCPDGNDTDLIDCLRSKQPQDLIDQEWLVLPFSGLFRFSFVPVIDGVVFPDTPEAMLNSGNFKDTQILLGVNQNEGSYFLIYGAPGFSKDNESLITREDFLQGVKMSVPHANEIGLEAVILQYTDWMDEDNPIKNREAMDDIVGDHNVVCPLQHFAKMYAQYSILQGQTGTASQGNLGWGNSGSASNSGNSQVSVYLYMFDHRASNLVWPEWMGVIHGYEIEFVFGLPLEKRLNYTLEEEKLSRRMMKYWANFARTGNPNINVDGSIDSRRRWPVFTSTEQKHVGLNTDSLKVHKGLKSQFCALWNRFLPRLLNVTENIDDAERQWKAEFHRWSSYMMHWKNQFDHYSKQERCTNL
T1 sequence (P05067 672-713): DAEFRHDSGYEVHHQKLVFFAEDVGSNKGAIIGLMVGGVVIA

Regarding `Oc1ccc(/C=C/c2cc(O)cc(O)c2)cc1` [Resveratrol, reference compound], the inhibition at 25 µM in data set [1] was found to be 45.7%.
`COc1cc(/C=C/C(=O)NCCNc2c3c(nc4ccccc24)CCCC3)ccc1OCc1ccc(Br)cc1` [Compound 10d, (E)-3–(4-((4-bromobenzyl)oxy)-3-methoxyphenyl)-N-(2-((1,2,3,4-tetrahydroacridin-9-yl)amino)ethyl)acrylamide] registered a Distance to target in data set [2] of 628.95 ± 87.55 cm. Further, the “Speed in virtual platform” value in data set [2] amounted to 18.82 ± 5.36 cm/s. In data set [2], this compound had a Latency to target of 19.08 ± 2.56 s. Also, the “Morphologic changes in liver (histopathology, HE staining)” value in data set [3] is reported as “did not cause adverse morphologic changes in liver”. Further, the “Cell viability (% of vehicle)” value is 129.7 ± 7.5 % of vehicle in data set [4] (HepG2, 0.05 µM); 125.0 ± 2.3 % of vehicle in data set [4] (HepG2, 0.1 µM); 125.6 ± 2.1 % of vehicle in data set [4] (HepG2, 0.5 µM); 130.6 ± 2.2 % of vehicle in data set [4] (HepG2, 2.5 µM); 13.2 ± 2.3 % of vehicle in data set [4] (HepG2, 5 µM); 2.5 ± 0.3 % of vehicle in data set [4] (HepG2, 50 µM). Besides, the “Antiproliferative activity on HepG2 cells (in words)” value in data set [4] was “relatively strong toxic effects”. Also, the half-inhibitory concentration (IC50) was determined as 69.4 ± 13.4 nM in data set [5] and 49.5 ± 3.8 nM in data set [6]. The “SI (selectivity index, AChE IC50/BuChE IC50)” value in data set [6] is 0.7. Besides, the inhibition at 25 µM in data set [1] worked out at 66.8%.
`COc1cc(/C=C/C(=O)NCCNc2c3c(nc4ccccc24)CCCC3)ccc1OCc1ccc(C#N)cc1` [Compound 10j, (E)-3–(4-((4-cyanobenzyl)oxy)-3-methoxyphenyl)-N-(2-((1,2,3,4-tetrahydroacridin-9-yl)amino)ethyl)acrylamide]: inhibition in data set [5] was half-maximal at 79.8 ± 8.9 nM (IC50). Further, in data set [6], the “SI (selectivity index, AChE IC50/BuChE IC50)” value is reported as 1.3 and it took 107 ± 29.9 nM to reach half-maximal inhibition (IC50). Besides, the inhibition at 25 µM in data set [1] worked out at 49.5%.
For the compound `COc1cc(/C=C/C(=O)NCCNc2c3c(nc4ccccc24)CCCC3)ccc1OCc1ccc(C)c(C)c1` [Compound 10g, (E)-3–(4-((3,4-dimethylbenzyl)oxy)-3-methoxyphenyl)-N-(2-((1,2,3,4-tetrahydroacridin-9-yl)amino)ethyl)acrylamide], the Distance to target in data set [2] was determined as 612.85 ± 81.54 cm. Further, in data set [2], the “Speed in virtual platform” value stood at 17.27 ± 3.39 cm/s. In data set [2], the Latency to target turned out to be 24.73 ± 3.54 s. In data set [3], the “Morphologic changes in liver (histopathology, HE staining)” value is listed as “did not cause adverse morphologic changes in liver”. The “Cell viability (% of vehicle)” value in data set [4] (HepG2, 0.05 µM) was 128.4 ± 5.6 % of vehicle; in data set [4] (HepG2, 0.1 µM), 124.6 ± 1.7 % of vehicle; in data set [4] (HepG2, 0.5 µM) it was 121.7 ± 3.5 % of vehicle; in data set [4] (HepG2, 2.5 µM) it was 128.9 ± 4.1 % of vehicle; in data set [4] (HepG2, 5 µM) it was 1.5 ± 0.1 % of vehicle; in data set [4] (HepG2, 50 µM), 1.9 ± 0.3 % of vehicle. In addition, in data set [4], the “Antiproliferative activity on HepG2 cells (in words)” value is “relatively strong toxic effects”. In addition, the half-maximal inhibitory concentration (IC50) stood at 101 ± 15.5 nM in data set [5] and 37 nM in data set [6]. Besides, the “SI (selectivity index, AChE IC50/BuChE IC50)” value in data set [6] is reported as 0.4. Moreover, the inhibition at 25 µM in data set [1] was 65.5%.

A word on the IC50: it is the concentration at which inhibition is half-maximal. A low value points to greater potency in that assay.
